Data from patent US20260248927A1, “TARGETED PROTEIN DEGRADATION USING BIFUNCTIONAL COMPOUNDS THAT BIND UBIQUITIN LIGASE AND TARGET MCL-1 PROTEIN” (Captor Therapeutics S.A., priority 2022, published 2026).

Experiments:
[1] = target: [MCL-1]-[compound of formula (I)]—[CRBN/DDB1] (Homo sapiens, UniProt Q07820+Q96SW2); assay: HTRF ternary complex formation assay; format: binding; settings: hMcl-1 and CRBN, 180 min at 25° C.; read-out: HTRF ternary complex Average pEC50 by molecule (converted)
Protocol: The effect of the bifunctional compounds of the invention on the formation of a ternary complex composed of [MCL-1]-[compound of formula (I)]—[CRBN/DDB1] was investigated with HTRF ternary complex assay.
Mix of protein solution was prepared: • 48 nM hMcl-1 and 105.6 nM CRBN were prepared in PPI Europium detection buffer with 2 mM DTT. • Acceptor and donor stock solutions were diluted 100 times in PPI Europium detection buffer. Equal volumes of both reagents were mixed. Finally giving 3 nM of Streptavidin-Eu cryptate ([…]) and 6.67 nM of Anti-6×his-d2 ([…]).
5 μl of protein mix was dispensed to all wells. The tested compounds in dose-response were dispensed onto a white 384-well low volume plate (Greiner, 784075). DMSO was backfilled to all wells, resulting in a final DMSO content of 0.5%. Wells containing only DMSO served as a background. Next, 5 μl of solution with donor and acceptor was added to the wells.
The plate was sealed with transparent film and shaken using a VibroTurbulator for 60 sec at level 3. The plate was then spun down shortly (10 s, 1000 rcf) and incubated at 25° C. for 180 min.
The read-out was performed with plate reader (Pherastar, BMG Labtech) in time resolved fluorescence mode. Filterset: TR 337 665 620.
The results were analyzed as follows: • 1) an average of fluorescence for background signal was calculated and used as a negative control; • 2) raw fluorescence values for tested compounds were normalized against negative controls; • 3) bell shape curve was fitted to a gaussian distribution using a non-linear least squares Gauss-Newton algorithm; • 4) EC50 and pEC50 values were determined.

MV4-11 cells = assay: Cell viability assay (CellTiter-Glo), MV4-11; format: cell-based; settings: Homo sapiens, MV4-11, 24 hours, 1% FBS, read-out: Average pCC50 by molecule MV4-11 (converted)
Source text: (§1) The effect of various compounds of the invention on the viability of MV4-11 and ARH-77 cell lines was investigated, using the CTG protocol described below.
(§2) MV4-11 cell lines are derived from acute myeloid leukaemia and it is described in the literature as a MCL-1 dependent cell line, as opposed to lymphoblast-like ARH-77 cell line, which is described as independent of MCL-1 (Tron A E et al. Nat Commun. 2018; 9: 5341; Caenepeel S et al. Cancer Discov. 2018 December; 8(12): 1582-1597).
(§3) Cells (MV4-11 or ARH-77) were seeded on […] in a growth medium with 1% FBS. Next, compound stocks were pre-diluted in DMSO and added directly to the cell culture media (final DMSO concentration: 0.5%). Compound concentrations used in this assay: 1/3 dilutions starting at 30 μM (9 to 12 points). After 24 hours of incubation, cell viability was evaluated using CellTiter-Glo Luminescent Cell Viability Assay (Promega, cat #G7572). The luminescence signal was measured using a CLARIOstar Plus Multi-Mode Microplate Reader (574-590 nm).
(§4) Results were normalized to DMSO control. Collected data were analyzed using GraphPad Prism to calculate pCC50 values.

[2] = Cell viability assay (CellTiter-Glo), ARH-77; format: cell-based; settings: human, ARH-77 cells (lymphoblast-like, MCL-1 independent), ARH-77, 24 hours, 1% FBS, read-out: Average pCC50 by molecule ARH-77 (converted)
Source text: as §1, §2, §3, §4

Sequence of [MCL-1]-[compound of formula (I)]—[CRBN/DDB1] (Q07820 whole entry): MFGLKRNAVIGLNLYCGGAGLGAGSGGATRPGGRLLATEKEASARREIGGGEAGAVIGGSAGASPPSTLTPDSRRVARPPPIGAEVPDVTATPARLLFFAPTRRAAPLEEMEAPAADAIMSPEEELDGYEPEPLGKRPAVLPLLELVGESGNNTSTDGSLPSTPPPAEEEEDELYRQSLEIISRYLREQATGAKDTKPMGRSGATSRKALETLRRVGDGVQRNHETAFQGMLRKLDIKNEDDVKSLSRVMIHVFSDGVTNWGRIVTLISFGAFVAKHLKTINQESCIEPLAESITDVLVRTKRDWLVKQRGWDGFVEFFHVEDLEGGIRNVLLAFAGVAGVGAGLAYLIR
Sequence of [MCL-1]-[compound of formula (I)]—[CRBN/DDB1] (Q96SW2 whole entry): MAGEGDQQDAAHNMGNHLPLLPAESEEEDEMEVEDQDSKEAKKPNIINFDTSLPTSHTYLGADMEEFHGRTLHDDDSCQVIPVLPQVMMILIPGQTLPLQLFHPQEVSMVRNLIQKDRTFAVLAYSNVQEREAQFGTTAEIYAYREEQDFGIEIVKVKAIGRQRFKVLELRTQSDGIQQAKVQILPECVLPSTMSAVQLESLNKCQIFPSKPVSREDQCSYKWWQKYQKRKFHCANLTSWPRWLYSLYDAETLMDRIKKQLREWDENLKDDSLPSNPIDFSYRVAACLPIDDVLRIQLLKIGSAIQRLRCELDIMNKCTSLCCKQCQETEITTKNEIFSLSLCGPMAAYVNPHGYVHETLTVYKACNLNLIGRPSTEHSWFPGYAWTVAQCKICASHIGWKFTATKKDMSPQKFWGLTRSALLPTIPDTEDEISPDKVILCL
Sequence of [MCL-1]-[compound of formula (I)]—[CRBN/DDB1] (Q16531 whole entry partner): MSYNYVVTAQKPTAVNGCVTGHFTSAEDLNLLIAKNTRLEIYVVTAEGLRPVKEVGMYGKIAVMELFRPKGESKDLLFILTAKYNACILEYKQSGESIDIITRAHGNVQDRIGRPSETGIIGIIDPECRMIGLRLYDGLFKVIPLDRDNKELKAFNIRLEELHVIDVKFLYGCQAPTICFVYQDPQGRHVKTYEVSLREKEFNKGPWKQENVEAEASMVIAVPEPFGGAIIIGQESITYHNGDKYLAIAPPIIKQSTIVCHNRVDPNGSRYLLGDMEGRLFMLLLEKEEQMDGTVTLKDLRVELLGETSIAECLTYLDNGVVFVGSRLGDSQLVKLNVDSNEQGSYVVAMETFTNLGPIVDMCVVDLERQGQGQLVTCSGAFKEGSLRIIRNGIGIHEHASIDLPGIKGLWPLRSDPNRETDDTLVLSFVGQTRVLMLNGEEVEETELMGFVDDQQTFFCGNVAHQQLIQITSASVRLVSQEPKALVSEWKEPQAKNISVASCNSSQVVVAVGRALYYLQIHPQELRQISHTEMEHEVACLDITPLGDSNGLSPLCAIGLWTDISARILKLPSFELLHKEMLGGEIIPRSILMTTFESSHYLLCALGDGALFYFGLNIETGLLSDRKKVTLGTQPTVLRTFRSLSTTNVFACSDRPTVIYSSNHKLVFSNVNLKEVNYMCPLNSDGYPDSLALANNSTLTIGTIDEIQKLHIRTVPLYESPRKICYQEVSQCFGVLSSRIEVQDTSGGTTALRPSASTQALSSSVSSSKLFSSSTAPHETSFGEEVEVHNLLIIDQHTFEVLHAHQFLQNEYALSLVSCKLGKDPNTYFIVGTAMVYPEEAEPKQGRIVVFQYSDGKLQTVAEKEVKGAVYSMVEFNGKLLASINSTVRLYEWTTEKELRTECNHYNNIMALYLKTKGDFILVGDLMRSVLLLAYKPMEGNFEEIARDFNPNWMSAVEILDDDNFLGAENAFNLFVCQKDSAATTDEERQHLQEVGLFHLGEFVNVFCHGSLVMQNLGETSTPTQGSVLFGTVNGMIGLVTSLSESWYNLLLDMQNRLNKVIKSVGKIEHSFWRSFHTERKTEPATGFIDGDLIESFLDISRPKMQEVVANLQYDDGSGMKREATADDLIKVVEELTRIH

Row | Compound | EC50 [1] [nM] | CC50 (MV4-11 cells) [nM] | CC50 at 24 h [2] [nM]
1 | Cc1nc2c(C(=O)NC3CCC(=O)NC3=O)cc(OCC(=O)N3CCN(CCn4c(C(=O)O)c(CCCOc5cccc6cc(F)ccc56)c5ccc(Cl)c(-c6c(C)nn(C)c6C)c54)CC3)cc2[nH]1 (stereo not drawn) [Compound 2, 6-Chloro-1-(2-(4-(2-((4-((2,6-dioxopiperidin-3-yl)carbamoyl)-2-methyl-1H-benzo[d]imidazol-6-yl)oxy)acetyl)piperazin-1-yl)ethyl)-3-(3-((6-fluoronaphthalen-1-yl)oxy)propyl)-7-(1,3,5-trimethyl-1H-pyrazol-4-yl)-1H-indole-2-carboxylic acid] | < 100 | < 100 | > 10000
2 | Cc1nc2cc(C(=O)NCC(=O)N3CCN(CCn4c(C(=O)O)c(CCCOc5cccc6cc(F)ccc56)c5ccc(Cl)c(-c6c(C)nn(C)c6C)c54)CC3)ccc2cc1C1CCC(=O)NC1=O (stereo not drawn) [Compound 6, 6-Chloro-1-(2-(4-((3-(2,6-dioxopiperidin-3-yl)-2-methylquinoline-7-carbonyl)glycyl)piperazin-1-yl)ethyl)-3-(3-((6-fluoronaphthalen-1-yl)oxy)propyl)-7-(1,3,5-trimethyl-1H-pyrazol-4-yl)-1H-indole-2-carboxylic acid] | < 100 | < 100 | > 10000
3 | Cc1nn(C)c(C)c1-c1c(Cl)ccc2c(CCCOc3cccc4cc(F)ccc34)c(C(=O)O)n(CCN3CCN(C(=O)COc4c(N(C)C)ccc5c4CN(C4CCC(=O)NC4=O)C5=O)CC3)c12 (stereo not drawn) [Compound 10, 6-Chloro-1-(2-(4-(2-((5-(dimethylamino)-2-(2,6-dioxopiperidin-3-yl)-1-oxoisoindolin-4-yl)oxy)acetyl)piperazin-1-yl)ethyl)-3-(3-((6-fluoronaphthalen-1-yl)oxy)propyl)-7-(1,3,5-trimethyl-1H-pyrazol-4-yl)-1H-indole-2-carboxylic acid] | < 316 | < 316 | > 10000
4 | Cc1nc2c(C(=O)NC3CCC(=O)NC3=O)cc(OCCC(=O)N3CCN(CCn4c(C(=O)O)c(CCCOc5cccc6cc(F)ccc56)c5ccc(Cl)c(-c6c(C)nn(C)c6C)c54)CC3)cc2[nH]1 (stereo not drawn) [Compound 3, 6-Chloro-1-(2-{4-[3-({4-[(2,6-dioxopiperidin-3-yl)carbamoyl]-2-methyl-1H-1,3-benzodiazol-6-yl}oxy)propanoyl]piperazin-1-yl}ethyl)-3-{3-[(6-fluoronaphthalen-1-yl)oxy]propyl}-7-(1,3,5-trimethyl-1H-pyrazol-4-yl)-1H-indole-2-carboxylic acid] | < 100 | < 100 | > 31600
5 | COc1ccc2c(c1OCC(=O)N1CCN(CCn3c(C(=O)O)c(CCCOc4cccc5cc(F)ccc45)c4ccc(Cl)c(-c5c(C)nn(C)c5C)c43)CC1)CN(C1CCC(=O)NC1=O)C2=O (stereo not drawn) [Compound 7, 6-Chloro-1-{2-[4-(2-{[2-(2,6-dioxopiperidin-3-yl)-5-methoxy-1-oxo-2,3-dihydro-1H-isoindol-4-yl]oxy}acetyl)piperazin-1-yl]ethyl}-3-{3-[(6-fluoronaphthalen-1-yl)oxy]propyl}-7-(1,3,5-trimethyl-1H-pyrazol-4-yl)-1H-indole-2-carboxylic acid] | < 100 | < 100 | > 10000

More lines, main results first:

Row | EC50 [1] [nM] | Compound | CC50 (MV4-11 cells) [nM] | CC50 at 24 h [2] [nM]
6 | < 316 | Cc1nn(C)c(C)c1-c1c(Cl)ccc2c(CCCOc3cccc4cc(F)ccc34)c(C(=O)O)n(CCN3CCN(C(=O)COc4cc(N)cc5c4CN(C4CCC(=O)NC4=O)C5=O)CC3)c12 (stereo not drawn) [Compound 11, 1-{2-[4-(2-{[6-Amino-2-(2,6-dioxopiperidin-3-yl)-1-oxo-2,3-dihydro-1H-isoindol-4-yl]oxy}acetyl)piperazin-1-yl]ethyl}-6-chloro-3-{3-[(6-fluoronaphthalen-1-yl)oxy]propyl}-7-(1,3,5-trimethyl-1H-pyrazol-4-yl)-1H-indole-2-carboxylic acid] | < 100 | > 10000
7 | < 31.6 | Cc1nn(C)c(C)c1-c1c(Cl)ccc2c(CCCOc3cccc4cc(F)ccc34)c(C(=O)O)n(CCN3CCN(C(=O)c4cc5cc(C6CCC(=O)NC6=O)ccc5n4C)CC3)c12 (stereo not drawn) [Compound 148, 6-Chloro-1-(2-(4-(5-(2,6-dioxopiperidin-3-yl)-1-methyl-1H-indole-2-carbonyl)piperazin-1-yl)ethyl)-3-(3-((6-fluoronaphthalen-1-yl)oxy)propyl)-7-(1,3,5-trimethyl-1H-pyrazol-4-yl)-1H-indole-2-carboxylic acid] | < 316 | > 3160
8 | < 100 | Cc1nn(C)c(C)c1-c1c(Cl)ccc2c(CCCOc3cccc4cc(F)ccc34)c(C(=O)O)n(CCN3C(C)CN(C(=O)COc4cccc5c4CN(C4CCC(=O)NC4=O)C5=O)CC3C)c12 (stereo not drawn) [Compound 28, 6-Chloro-1-{2-[4-(2-{[2-(2,6-dioxopiperidin-3-yl)-1-oxo-2,3-dihydro-1H-isoindol-4-yl]oxy}acetyl)-2,6-dimethylpiperazin-1-yl]ethyl}-3-{3-[(6-fluoronaphthalen-1-yl)oxy]propyl}-7-(1,3,5-trimethyl-1H-pyrazol-4-yl)-1H-indole-2-carboxylic acid] | < 316 | > 10000
9 | < 31.6 | Cc1nn(C)c(C)c1-c1c(Cl)ccc2c(CCCOc3cccc4cc(F)ccc34)c(C(=O)O)n(CCN3CCC(CN4CCN(c5cc6c(cc5F)C(=O)N(C5CCC(=O)NC5=O)C6)CC4)CC3)c12 (stereo not drawn) [Compound 144, 6-Chloro-1-(2-(4-((4-(2-(2,6-dioxopiperidin-3-yl)-6-fluoro-1-oxoisoindolin-5-yl)piperazin-1-yl)methyl)piperidin-1-yl)ethyl)-3-(3-((6-fluoronaphthalen-1-yl)oxy)propyl)-7-(1,3,5-trimethyl-1H-pyrazol-4-yl)-1H-indole-2-carboxylic acid] | < 100 | > 3160
10 | < 316 | CNc1cc(OCC(=O)N2CCN(CCn3c(C(=O)O)c(CCCOc4cccc5cc(F)ccc45)c4ccc(Cl)c(-c5c(C)nn(C)c5C)c43)CC2)c2c(c1)C(=O)N(C1CCC(=O)NC1=O)C2 (stereo not drawn) [Compound 12, 6-Chloro-1-(2-(4-(2-((2-(2,6-dioxopiperidin-3-yl)-6-(methylamino)-1-oxoisoindolin-4-yl)oxy)acetyl)piperazin-1-yl)ethyl)-3-(3-((6-fluoronaphthalen-1-yl)oxy)propyl)-7-(1,3,5-trimethyl-1H-pyrazol-4-yl)-1H-indole-2-carboxylic acid] | < 100 | > 31600
11 | < 316 | CCc1nn2c(c1-c1c(Cl)ccc3c(CCCOc4cccc5cc(F)ccc45)c(C(=O)O)n(CCN4CCN(C(=O)COc5cccc6c5CN(C5CCC(=O)NC5=O)C6=O)CC4)c13)COCC2 (stereo not drawn) [Compound 36, 6-Chloro-1-(2-(4-(2-((2-(2,6-dioxopiperidin-3-yl)-1-oxoisoindolin-4-yl)oxy)acetyl)piperazin-1-yl)ethyl)-7-(2-ethyl-6,7-dihydro-4H-pyrazolo[5,1-c][1,4]oxazin-3-yl)-3-(3-((6-fluoronaphthalen-1-yl)oxy)propyl)-1H-indole-2-carboxylic acid] | < 100 | > 10000
12 | < 316 | Cc1nn(C)c(C)c1-c1c(Cl)ccc2c(CCCOc3cccc4cc(F)ccc34)c(C(=O)O)n(CCN3CCN(C(=O)COc4cccc5c4n(C)c(=O)n5C4CCC(=O)NC4=O)CC3)c12 (stereo not drawn) [Compound 23, 6-Chloro-1-(2-(4-(2-((1-(2,6-dioxopiperidin-3-yl)-3-methyl-2-oxo-2,3-dihydro-1H-benzo[d]imidazol-4-yl)oxy)acetyl)piperazin-1-yl)ethyl)-3-(3-((6-fluoronaphthalen-1-yl)oxy)propyl)-7-(1,3,5-trimethyl-1H-pyrazol-4-yl)-1H-indole-2-carboxylic acid] | < 31.6 | > 10000
